# Reference: BindingDB's records for doi:10.1016/j.ejmech.2009.07.027 (Trinity College, 2009)
# Test: Induction of human SERT-dependent cytotoxicity in SERT expressing HEK293 cells after 48 hrs by neutral red assay
smiles,measurement,value
CCSc1ccc(CC(CC)NC)cc1 (stereo unspecified) [2-N-Methylamino-1-(4-ethylthiophenyl)butane],EC50,> 100 µM
